Measurements reported in US5563130A, “Methods for inhibiting angiogenesis, proliferation of endothelial or tumor cells and tumor growth” (American Cyanamid Company, priority 1994, dated 1996).
Converted amounts (≈) assume the structure as drawn.

What was measured:
[1] = system: Adult Bovine Aortic Endothelial (ABAE) cell line; test: Antiproliferative activity in ABAE cells, PROTOCOL 1 (48 h, SRB); type: cell-based; conditions: Bos taurus
Experimental: PROTOCOL 1, 2, and 3 are described in greater detail hereinbelow. In general, according to PROTOCOLS 1 and 2, the target ABAE and/or Human Tumor cells are exposed to the compound of Formula I for 48 hours. PROTOCOL 3 exposes ABAE cell to the compound for 4 days. A detailed description of the protocol is as follows: Antiproliferative Activity in Human Tumor and Adult Bovine Aortic Endothelial (ABAE) Cell Lines The antiproliferative activity of the compounds of Formula I of the present invention is evaluated in a panel comprised of human tumor cell lines and an adult bovine aortic endothelial cell line (ABAE). […] The number of cells on the plate are quantitated using a protein dye-binding assay (Monks et al., 1991). […] The optical densities are read from an automatic spectrophotometric plate reader (Dynatech) directly to a main frame computer (VAX 8600). […] Mean values and standard errors are determined from duplicate wells. […] The number of cells after treatment (P), as % of control, is calculated for every concentration of drug, as follows: [formula] wherein: T is optical density measurement for treated cells after 48 hours; C is optical density measurement for untreated cells after 48 hours; Co is optical density measurement for cells at the time of drug addition. IC50 of growth inhibition is calculated from the sets of P values using the RS-1 data package (BBN Software). […]

[2] = system: A2780S; test: Antiproliferative activity in human ovarian tumor cell line A2780S; type: cell-based; conditions: Homo sapiens, A2780S, PROTOCOL 1 and PROTOCOL 2
Experimental: PROTOCOL 1, 2, and 3 are described in greater detail hereinbelow. In general, according to PROTOCOLS 1 and 2, the target ABAE and/or Human Tumor cells are exposed to the compound of Formula I for 48 hours. PROTOCOL 3 exposes ABAE cell to the compound for 4 days. A detailed description of the protocol is as follows:
Antiproliferative Activity in Human Tumor and Adult Bovine Aortic Endothelial (ABAE) Cell Lines
The antiproliferative activity of the compounds of Formula I of the present invention is evaluated in a panel comprised of human tumor cell lines and an adult bovine aortic endothelial cell line (ABAE). The human tumor cell lines are from:
All cell lines are maintained in log phase in RPMI 1640 media, supplemented with 5% fetal calf serum, penicillin/streptomycin and 2 mM L-glutamine. Cultures are renewed after 20 passages with cells from a fresh stock of batch-frozen early passage cells. Cell lines are routinely checked for mycoplasma contamination (Genprobe). In a laminar flow hood, cells (1-5×10^4) are plated into 96-well microtiter plates in a volume of 0.1 ml/well with a bulk microtiter dispenser (Denley). […] At this concentration, dimethylsulfoxide has no effect on cell growth. Compounds are added using a Tomtec dispenser which simultaneously dispenses from one 96-well plate, containing the drug dilutions, to the plates containing the cells. After two days of continuous drug exposure, 50% cold trichloroacetic acid (TCA) is added to 10% final concentration to fix the cells, and after 60 minutes at 4° C., the TCA is aspirated and the plates are washed 5 times with deionized water using a microtiter plate washer. The number of cells on the plate are quantitated using a protein dye-binding assay (Monks et al., 1991). A 0.4% solution of the dye, sulforhodamine B, in glacial acetic acid is added to the plates, and the plates are washed 5 times with 1% glacial acetic acid using the automatic plate washed. The bound stain is solubilized with 0.1 ml of 10 mM Tris base. The optical densities are read from an automatic spectrophotometric plate reader (Dynatech) directly to a main frame computer (VAX 8600).
Positive controls, that include standard chemotherapeutic drugs (i.e., adriamycin, cisplatin, etc.), are included in every experiment.
Background optical density measurements (complete media-cells, and complete media+drug-cells) are automatically subtracted from the appropriate control and test wells. Mean values and standard errors are determined from duplicate wells. A measure is also made of the optical density at time when the drugs are added. The number of cells after treatment (P), as % of control, is calculated for every concentration of drug, as follows: [formula] wherein: T is optical density measurement for treated cells after 48 hours;
C is optical density measurement for untreated cells after 48 hours;
Co is optical density measurement for cells at the time of drug addition.
IC50 of growth inhibition is calculated from the sets of P values using the RS-1 data package (BBN Software).
The antiproliferative activity of the compounds of Formula I is evaluated in a panel comprised of human tumor cell lines and an adult bovine aortic endothelial cell line (ABAE) as listed in PROTOCOL 1. This assay is a modification of PROTOCOL 1. The modifications include:
1) each concentration for each compound is tested in a single well;
2) compounds are tested at 20, 4, 0.8, 0.16 microgram/ml and additionally in some experiments at 100 and 0.32 microgram/ml;
3) samples are pipetted into a 96-well plate for each of the cell lines by a Beckman Biomek 1000 SL robot;
4) after fixing with TCA each well is washed with 0.35 ml distilled water twice, not five times;
5) after staining with sulforhodamine B each well is washed 3 times, not five times; […]

## CN(C)c1ccc(O)c2c1C[C@H]1C[C@H]3[C@H](N(C)C)C(O)=C(C(N)=O)C(=O)[C@@]3(O)C(O)=C1C2=O [Minocycline, reference compound]
[1]
  IC50: 6.8 µg/mL (≈ 14.9 µM)
[2]
  IC50: 6.1 µg/mL (≈ 13.3 µM)
